Values joined by “and” are separate entries in the source; they are usually repeats but may differ in a detail not shown here. Identical values can stand only once.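 The compound was tested at five concentrations on cells cultured in 96-well plates, with a 48-hour exposure period. At the GI50, growth is halved. TGI is the concentration that stops growth completely.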

Among the test systems are HCT-15 colon; HOP-62 NSCLC; LOX IMVI melanoma; MALME-3M melanoma; MOLT-4 leukemia; OVCAR-8 ovarian; SK-MEL-5 melanoma; SN12C renal; U251 CNS.
Holding throughout (test): NCI-60 cell line screen, 48 h

Regarding `Cn1c(=O)c(-c2c(Cl)cccc2Cl)cc2cnc(Nc3ccc(N4CCOCC4)cc3)nc21`, the GI50 in the assay on HCT-15 colon was 0.0944 µM; with HOP-62 NSCLC, less than 0.01 µM; with LOX IMVI melanoma, 0.178 µM; in the assay on MALME-3M melanoma, 0.0196 µM; with MOLT-4 leukemia, less than 0.0476 µM; with OVCAR-8 ovarian it was 1.09 µM. Besides, the GI50 in the assay with SK-MEL-5 melanoma is 0.149 µM; in the assay on SN12C renal it was 0.129 µM; in the assay on U251 CNS it was 0.17 µM. For the same compound, the TGI in the assay with HCT-15 colon is more than 100 µM; in the assay on HOP-62 NSCLC, 0.124 µM; in the assay on LOX IMVI melanoma, 1.31 µM; in the assay on MALME-3M melanoma, 0.491 µM; with MOLT-4 leukemia, 0.804 µM; in the assay on OVCAR-8 ovarian, more than 100 µM. The TGI was 1.34 µM with SK-MEL-5 melanoma, 4.65 µM in the assay on SN12C renal and 6.13 µM with U251 CNS.
Take `O=C1NC2(CCCCC2)C2=C1CCCCC2`: the TGI in the assay with HCT-15 colon, with HOP-62 NSCLC, in the assay with LOX IMVI melanoma, with MALME-3M melanoma, in the assay with MOLT-4 leukemia and in the assay with OVCAR-8 ovarian was more than 100 µM each time. Further, the TGI in the assay with SK-MEL-5 melanoma, with SN12C renal and in the assay on U251 CNS was more than 100 µM in each case.
On to `Cc1c2cc[n+](C)cc2c(C)c2c1[nH]c1ccc(Oc3ccccc3)cc12`, for which the TGI with HCT-15 colon is more than 100 µM; with HOP-62 NSCLC it was 38 µM and 26.3 µM; with LOX IMVI melanoma, 11.3 µM and 50.1 µM; with MOLT-4 leukemia it was > 43.7 µM and 12.7 µM; in the assay with OVCAR-8 ovarian it was more than 100 µM; in the assay on SN12C renal it was more than 100 µM. Further, in the assay with U251 CNS, the TGI was more than 100 µM. For the same compound, the GI50 in the assay with LOX IMVI melanoma is 2.96 µM.
With `Cn1ncc2c(c1=O)Nc1ccccc1S2(=O)=O`, the TGI in the assay with HCT-15 colon, in the assay with HOP-62 NSCLC, in the assay on LOX IMVI melanoma, in the assay on MALME-3M melanoma, with MOLT-4 leukemia and in the assay with OVCAR-8 ovarian was more than 100 µM throughout. The TGI in the assay with SK-MEL-5 melanoma, in the assay with SN12C renal and with U251 CNS was more than 100 µM throughout.
For `Cc1cccc2c1Oc1ncccc1C2NC(=O)CN(C)C` (configuration not stated), the TGI with HCT-15 colon, in the assay with LOX IMVI melanoma, with MALME-3M melanoma, with MOLT-4 leukemia, in the assay with OVCAR-8 ovarian and in the assay on SN12C renal was more than 10 µM throughout. The compound further displayed a TGI in the assay on U251 CNS of more than 10 µM.
For the compound `NC1=NN(c2ccccc2)C(=O)C1/C(=N\NC(=O)c1cc2ccccc2cc1O)C(=O)Nc1ccc(Cl)cc1` (configuration not stated), the TGI was more than 100 µM in the assay with HCT-15 colon; more than 100 µM in the assay on HOP-62 NSCLC; more than 100 µM with MALME-3M melanoma; 40.5 µM with MOLT-4 leukemia; more than 100 µM in the assay on OVCAR-8 ovarian; 56.5 µM in the assay with SK-MEL-5 melanoma. The TGI in the assay with SN12C renal and in the assay on U251 CNS was more than 100 µM throughout.
On to `CCCCc1c2c(nc3c1CC/C(=C\c1ccccc1)C3=O)CCCC2`, for which the TGI in the assay on HCT-15 colon is 12.3 µM; in the assay with HOP-62 NSCLC it was 16.5 µM; with LOX IMVI melanoma, 3.48 µM; with MALME-3M melanoma, 20.2 µM; with MOLT-4 leukemia, 11.7 µM; in the assay with OVCAR-8 ovarian, 4.79 µM. Further, the TGI in the assay on SN12C renal was 10.9 µM; in the assay with U251 CNS, 10.8 µM.
For `O=[N+]([O-])c1cccc(C2=NOC3CCCC23)c1` (configuration not stated), the TGI with HCT-15 colon, with HOP-62 NSCLC, in the assay on MALME-3M melanoma, in the assay on MOLT-4 leukemia, in the assay with OVCAR-8 ovarian and in the assay on SK-MEL-5 melanoma was more than 100 µM each time. Moreover, the TGI in the assay with SN12C renal and in the assay with U251 CNS was more than 100 µM throughout.
For the compound `Cn1nc(-c2ccccc2)c(C(=O)/C=C/c2ccccc2)c(N2CCCC2)c1=O`, the TGI was determined as 72.5 µM in the assay on HCT-15 colon; 24.2 µM in the assay on HOP-62 NSCLC; 88.2 µM with LOX IMVI melanoma; 22.3 µM in the assay with MOLT-4 leukemia; 76.5 µM in the assay with OVCAR-8 ovarian; 35.7 µM in the assay on SK-MEL-5 melanoma. Further, the TGI in the assay on SN12C renal is 77.6 µM; in the assay on U251 CNS, 26.4 µM.
Regarding `O=[N+]([O-])C1(CO)COC(CCc2ccccc2)OC1` (configuration not stated), the TGI with HCT-15 colon, with HOP-62 NSCLC, in the assay with LOX IMVI melanoma, in the assay on MALME-3M melanoma, in the assay with MOLT-4 leukemia and with OVCAR-8 ovarian was more than 100 µM each time. Also, the TGI in the assay on SK-MEL-5 melanoma, with SN12C renal and in the assay with U251 CNS was more than 100 µM throughout.
With `COC(=O)CCSC(=O)Nc1ccccc1Cl`, the TGI in the assay on HCT-15 colon, with HOP-62 NSCLC, in the assay with LOX IMVI melanoma, in the assay on MOLT-4 leukemia, in the assay with OVCAR-8 ovarian and in the assay on SN12C renal was more than 100 µM each time. In the assay with U251 CNS, this compound registered a TGI of more than 100 µM.
Turning to `CC1CC2C(=O)N(c3ccccc3)C(=O)C2c2[nH]c3ccccc3c21` (configuration not stated), the TGI in the assay with HCT-15 colon, in the assay on LOX IMVI melanoma, with MALME-3M melanoma, in the assay on MOLT-4 leukemia, with OVCAR-8 ovarian and with SK-MEL-5 melanoma was more than 100 µM each time. The TGI in the assay on SN12C renal and in the assay with U251 CNS was more than 100 µM each time.
As to `CN(C)c1ccc(/C=C2\Cc3ccccc3C2=O)cc1Br`, the TGI in the assay with HCT-15 colon was more than 100 µM; in the assay with HOP-62 NSCLC, more than 100 µM; in the assay with MALME-3M melanoma, more than 100 µM; in the assay with MOLT-4 leukemia, 93.5 µM; in the assay with OVCAR-8 ovarian, more than 100 µM; with SK-MEL-5 melanoma, 76.6 µM. The TGI with SN12C renal and with U251 CNS was more than 100 µM in each case.
Turning to `NC1CC(n2ccc(=O)[nH]c2=O)OC1C(O)CO` (configuration not stated), the TGI in the assay on HCT-15 colon, in the assay with HOP-62 NSCLC, in the assay with LOX IMVI melanoma, in the assay on MALME-3M melanoma, in the assay on MOLT-4 leukemia and with OVCAR-8 ovarian was more than 100 µM in each case. Moreover, the TGI with SK-MEL-5 melanoma, in the assay on SN12C renal and in the assay on U251 CNS was more than 100 µM each time.
With `O=C1COc2cc3c(cc2N1)SCC(=O)N3`, the TGI with HOP-62 NSCLC, in the assay on MALME-3M melanoma, in the assay with MOLT-4 leukemia, in the assay with OVCAR-8 ovarian and in the assay on SK-MEL-5 melanoma was more than 100 µM in each case.
`COC(=O)C1=C(C)C(=O)C2(CCCCCC2C(=O)OC)C1` (configuration not stated): the TGI in the assay on HCT-15 colon, with HOP-62 NSCLC, with MALME-3M melanoma, in the assay with MOLT-4 leukemia, with OVCAR-8 ovarian and with SK-MEL-5 melanoma was more than 100 µM throughout. The TGI in the assay on SN12C renal and in the assay with U251 CNS was more than 100 µM each time.
For the compound `O=c1cccccc1[O-].O=c1cccccc1[O-].O=c1cccccc1[O-].[Dy+3]`, the TGI in the assay on HCT-15 colon is more than 100 µM; with HOP-62 NSCLC, 99.9 µM; in the assay with LOX IMVI melanoma, more than 100 µM; with MALME-3M melanoma it was more than 100 µM; in the assay on MOLT-4 leukemia it was 46.2 µM; in the assay on OVCAR-8 ovarian it was 97.6 µM. For the same compound, the TGI was 72.3 µM in the assay with SK-MEL-5 melanoma, more than 100 µM in the assay with SN12C renal and more than 100 µM in the assay with U251 CNS. Further, the figures for the GI50 in the assay on HOP-62 NSCLC, in the assay on SN12C renal and in the assay with U251 CNS were 33 µM, 17.7 µM and 24.8 µM, respectively.
Take `NC(=O)NC(=O)C1CCC(=O)N1S(=O)(=O)c1ccc(Cl)cc1` (configuration not stated): the TGI in the assay on HCT-15 colon, in the assay on HOP-62 NSCLC, in the assay on MALME-3M melanoma, in the assay with MOLT-4 leukemia, in the assay with OVCAR-8 ovarian and in the assay on SK-MEL-5 melanoma was more than 100 µM in each case. For the same compound, the TGI in the assay with SN12C renal and with U251 CNS was more than 100 µM throughout.
`CCOC(=O)C1C(=O)C(=O)N2CCc3c([nH]c4ccccc34)C12` (configuration not stated): the TGI in the assay on HCT-15 colon, in the assay on HOP-62 NSCLC, in the assay with MALME-3M melanoma, in the assay on MOLT-4 leukemia, in the assay with OVCAR-8 ovarian and in the assay with SK-MEL-5 melanoma was more than 100 µM in each case. The TGI in the assay with SN12C renal and in the assay with U251 CNS was more than 100 µM in each case.
Take `CCCCCCCCCCCCCCCC(=O)NCC(OCC)OCC`: the TGI with HCT-15 colon, in the assay with HOP-62 NSCLC, in the assay with LOX IMVI melanoma, in the assay on MALME-3M melanoma, in the assay on OVCAR-8 ovarian and with SK-MEL-5 melanoma was more than 100 µM throughout. Further, the TGI in the assay on SN12C renal and with U251 CNS was more than 100 µM each time.
On to `Cc1[nH]n(C(=O)c2ccc(Cl)cc2)c(=O)c1/C=C1\C(O)=CC(=O)c2ccccc21`, for which the TGI with HOP-62 NSCLC, in the assay with LOX IMVI melanoma, with MALME-3M melanoma, with MOLT-4 leukemia, with OVCAR-8 ovarian and in the assay with SK-MEL-5 melanoma was more than 100 µM in each case. The TGI in the assay on SN12C renal and in the assay on U251 CNS was more than 100 µM each time.
Consider `CCOC(=O)NC/C=C/CO`, for which the TGI in the assay on HCT-15 colon, with HOP-62 NSCLC, in the assay with MALME-3M melanoma, in the assay with MOLT-4 leukemia, in the assay on OVCAR-8 ovarian and in the assay on SK-MEL-5 melanoma was more than 100 µM throughout. Also, the TGI in the assay on SN12C renal and in the assay on U251 CNS was more than 100 µM in each case.
Turning to `CCOC(=O)/C(=C/c1ccc[nH]1)P(=O)(OCC)OCC`, the TGI in the assay with HOP-62 NSCLC, in the assay on LOX IMVI melanoma, in the assay on MALME-3M melanoma, in the assay on MOLT-4 leukemia, in the assay with OVCAR-8 ovarian and with SK-MEL-5 melanoma was more than 100 µM each time. In addition, the TGI in the assay with SN12C renal and in the assay with U251 CNS was more than 100 µM in each case.
